According to patent US20100168054A1, “Functionalized Beta 1,6 Glucosamine Disaccharides and Process for Their Preparation” (OM PHARMA, priority 2006, published 2010):
Entries after “also recorded” stand apart in the source; their conditions may differ.

Key:
[1] = system: THP1-Blue cells (express naturally both TLR2 and TLR4); assay: THP1-Blue NF-κB/AP-1-inducible SEAP reporter; type: cell-based, human; settings: for Optical density read at 625 nm, mean of duplicates: 48 h
Description: A first series of experiment was performed on THP-1 cells, which express naturally both TLR2 and TLR4. THP-1 cells are human peripheral blood monocytic cells. Monocytes play a key role in innate immunity and express most TLRs at various levels. As for the primary cells, THP-1 cells activate NF-κB and other transcription factors in response to TLR ligands
To facilitate analysis of TLR response in monocytes, InvivoGen (Toulouse, France) provides THP-1 clones stably transfected with an NF-κB-inducible reporter system, called THP1-Blue™. THP-1 Blue cells were stably transfected with a reporter plasmid expressing a secreted embryonic alkaline phosphatase (SEAP) gene under the control of a promoter inducible by several transcription factors such as NF-κB and AP-1. Upon TLR stimulation, THP1-Blue™ cells activate transcription factors and subsequently the secretion of SEAP which is easily detectable when using QUANTI-Blue\u2122a medium that turns purple/blue in the presence of SEAP.
The cells were stimulated with the controls and compounds of the invention according to manufacturer's instructions. Results: Increased OD at 625 Nm after 48 Hours: The results for the controls (negative=LPS K12CD25 ultrapure, a TLR4 agonist; and PAM3CSK4=positive, a TLR2 agonist) are provided in the table below. The results (expressed as OD of arbitrary units) show the mean values (from duplicate measures) of Optical density read at 625 nm, 48 h after stimulation at 37° C. with the controls (up to 1000 ng/ml): […]

[2] = system: human peripheral blood mononuclear cells (PBMC); assay: TNF-α secretion by human PBMC (ELISA); type: cell-based; settings: for TNF-α: 24 h; for TNF-α induction (in words): 0.2, 2, 20 μg/ml
Description: (§1) Peripheral blood from healthy donors (Centre de transfusion, Hôpital Universitaire, Geneva) was centrifuged to get the buffy coat. The buffy coat was mixed with Hanks' balanced saline solution (HBSS, Sigma, Buchs, Switzerland), layered over Ficoll Paque Plus (Amersham Pharmacia) to 1.077 g/mL and centrifuged (2800 rpm, 20° C., 25 min). Cells harvested from the interphase were washed twice in HBSS at 800 rpm for 15 min at room temperature and the pelleted cells were resuspended in HBSS. The cell counts were performed using a Neubauer cell. All cell cultures were performed in RPMI-1640 medium supplemented with penicillin (100 U/mL), streptomycin (100 μg/mL), L-glutamine (2 mmol/L) and 10% fetal calf serum (FCS), all obtained from Sigma. For in vitro stimulation, the cells were cultured at a concentration of 1×10^6 viable cells/well.
(§2) PBMC were incubated at 37° C. and under 5% CO2 atmosphere with the controls (see below) and with the products of the invention at 1, 5, and 20 μg/mL for IL-6, and at 0.2, 2, and 20 μg/mL for TNF-α secretion. Medium: RPMI alone.
(§3) The surpernatants of the cultures were harvested after 24 h and the concentration of IL-6 and TNF-α were measured by an enzyme-linked immunosorbent assay (ELISA) (Human IL-6 and TNF-α ELISA Set, BD OptEIA, San Diego, USA), according to the manufacturer instructions. The detection limits were 10 and 8 pg/mL respectively.

[3] = system: human peripheral blood mononuclear cells (PBMC); assay: IL-6 secretion by human PBMC (ELISA); type: cell-based; settings: for IL6: 24 h; for IL-6 secretion (in words): 1, 5, 20 μg/ml
Description: as §1, §2, §3
PBMC are incubated at 37° C. and under 5% CO2 atmosphere with the products of the invention.
The supernatants of the cultures are harvested after 24 h and the concentration of IL-6 was measured by an enzyme-linked immunosorbent assay (ELISA) (Human IL-6 ELISA Set, BD OptEIA, San Diego, USA), according to the manufacturer instructions. The detection limit was 10 pg/mL.

[4] = molecular target: T1, TLR2 (Homo sapiens, UniProt O60603); assay: HEK-TLR2 IL-8 secretion; type: cell-based; settings: for IL-8 secretion, mean: 24 h; for activation of IL-8 secretion via TLR2 (in words): HEK-TLR2
T1 construct: host or cells: HEK293
Description: The HEK293 cell line was chosen for its null or low basal expression of the TLR genes. These cells enable efficient monitoring of TLR activity using ELISA analysis such as IL-8 titration or reporter-based systems that monitor TLR-induced NF-κB activation. HEK-TLR2 cells (Invivogen, Toulouse, France) are engineered HEK293 cells stably transfected with multiple genes from the TLR2 pathway that include TLR2 and genes participating in the recognition or involved in the signaling cascade. These cells secrete IL-8 after TLR2 stimulation. The experiments were performed according to manufacturers' instructions. Briefly, 2×10^4 cells/well (200 ul RPMI) are incubated at 37° C. during 3 days (5% CO2). The medium is removed, and 90 ul RPMi+5% FCS is added to the wells Then the agonists and controls are added (10 ul/well). The cells return to the incubator for 24 hours. The supernatants are collected and the IL-8 ELISA is performed according to manufacturer's instructions

T1 sequence (O60603 21-784): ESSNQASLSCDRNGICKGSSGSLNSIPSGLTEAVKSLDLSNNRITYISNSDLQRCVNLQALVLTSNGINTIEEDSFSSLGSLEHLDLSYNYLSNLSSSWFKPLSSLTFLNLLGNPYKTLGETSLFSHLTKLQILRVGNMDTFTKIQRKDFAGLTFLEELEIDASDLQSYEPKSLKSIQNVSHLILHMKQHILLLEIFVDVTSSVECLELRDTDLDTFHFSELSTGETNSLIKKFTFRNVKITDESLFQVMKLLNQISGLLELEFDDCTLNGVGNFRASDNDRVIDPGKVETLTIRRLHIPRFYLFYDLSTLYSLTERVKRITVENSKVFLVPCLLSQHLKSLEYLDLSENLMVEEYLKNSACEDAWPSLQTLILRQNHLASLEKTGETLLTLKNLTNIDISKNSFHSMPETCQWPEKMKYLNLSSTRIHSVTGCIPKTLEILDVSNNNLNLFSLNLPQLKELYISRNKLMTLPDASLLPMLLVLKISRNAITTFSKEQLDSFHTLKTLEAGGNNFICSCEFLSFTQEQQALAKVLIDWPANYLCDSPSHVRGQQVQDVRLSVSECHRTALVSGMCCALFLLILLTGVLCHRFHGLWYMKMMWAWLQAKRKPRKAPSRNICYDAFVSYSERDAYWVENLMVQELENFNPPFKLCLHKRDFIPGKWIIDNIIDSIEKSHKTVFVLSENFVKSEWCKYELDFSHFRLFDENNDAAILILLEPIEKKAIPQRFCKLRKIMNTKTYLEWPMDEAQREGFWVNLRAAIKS

CCCCCCCCCCCC(=O)O[C@H](CCCCCCCCCCC)CC(=O)N[C@H]1[C@H](OC[C@H]2O[C@H](O)[C@H](NC(=O)C[C@H](O)CCCCCCCCCCC)[C@@H](O)[C@@H]2O)O[C@H](CO)[C@@H](OP(=O)(O)O)[C@@H]1O [compound 16, 2-Deoxy-6-O-[2-deoxy-4-O-(dihydroxyphosphoryl)-2-[(R)-3-dodecanoyloxytetradecanoylamino]-β-D-glucopyranosy]-2-[(R)-3-hydroxytetradecanoylamino]-α-D-glucopyranose]
activation of THP-1 cells (in words) [1]: weaker
Optical density read at 625 nm, mean of duplicates ([1]; 14 ng/ml): 0.15 OD
Optical density read at 625 nm, mean of duplicates ([1]; 41 ng/ml): 0.13 OD
Optical density read at 625 nm, mean of duplicates ([1]; 124 ng/ml): 0.15 OD
Optical density read at 625 nm, mean of duplicates ([1]; 370 ng/ml): 0.16 OD
Optical density read at 625 nm, mean of duplicates ([1]; 1111 ng/ml): 0.17 OD
Optical density read at 625 nm, mean of duplicates ([1]; 3333 ng/ml): 0.18 OD
Optical density read at 625 nm, mean of duplicates ([1]; 10000 ng/ml): 0.22 OD
TNF-α ([2]; 0.2 μg/ml): 0.69 pg/mL
TNF-α ([2]; 2 μg/ml): 49 pg/mL
TNF-α ([2]; 20 μg/ml): 1705 pg/mL
TNF-α induction (in words) [2]: induced high levels of TNF-α
IL6 ([3]; 1 μg/ml): 81.1 pg/mL
IL6 ([3]; 5 μg/ml): 473.3 pg/mL
IL6 ([3]; 20 μg/ml): 1348.2 pg/mL
IL-6 secretion (in words) [3]: able to induce IL-6 secretion
IL-6 induced ([3]; up to, doses to 20 μg/ml): up to 1348 μg/ml
IL-8 secretion, mean ([4]; 14 ng/ml): 0.07 pg/mL
IL-8 secretion, mean ([4]; 41 ng/ml): 0.09 pg/mL
IL-8 secretion, mean ([4]; 124 ng/ml): 0.15 pg/mL
IL-8 secretion, mean ([4]; 370 ng/ml): 0.12 pg/mL
IL-8 secretion, mean ([4]; 1111 ng/ml): 0.15 pg/mL
IL-8 secretion, mean ([4]; 3333 ng/ml): 0.19 pg/mL
IL-8 secretion, mean ([4]; 10000 ng/ml): 0.27 pg/mL

CCCCCCCCCCCC(=O)O[C@H](CCCCCCCCCCC)CC(=O)N[C@H]1[C@H](OC[C@H]2O[C@H](OCCC)[C@H](NC(=O)C[C@H](O)CCCCCCCCCCC)[C@@H](O)[C@@H]2O)O[C@H](CO)[C@@H](OP(=O)(O)O)[C@@H]1O [compound 17, Propyl-2-Deoxy-6-O-[2-deoxy-4-O-(dihydroxyphosphoryl)-2-[(R)-3-dodecanoyloxytetradecanoylamino]-β-D-glucopyranosyl]-2-[(R)-3-hydroxytetradecanoylamino]-α-D-glucopyranoside]
activation of THP-1 cells (in words) [1]: good activators of THP-1 cells
Optical density read at 625 nm, mean of duplicates ([1]; 14 ng/ml): 0.13 OD
Optical density read at 625 nm, mean of duplicates ([1]; 41 ng/ml): 0.15 OD
Optical density read at 625 nm, mean of duplicates ([1]; 124 ng/ml): 0.19 OD
Optical density read at 625 nm, mean of duplicates ([1]; 370 ng/ml): 0.36 OD
Optical density read at 625 nm, mean of duplicates ([1]; 1111 ng/ml): 0.74 OD
Optical density read at 625 nm, mean of duplicates ([1]; 3333 ng/ml): 1.02 OD
Optical density read at 625 nm, mean of duplicates ([1]; 10000 ng/ml): 1.15 OD
TNF-α ([2]; 0.2 μg/ml): 46 pg/mL
TNF-α ([2]; 2 μg/ml): 474 pg/mL
TNF-α ([2]; 20 μg/ml): 2114 pg/mL
TNF-α induction (in words) [2]: induced high levels of TNF-α
IL6 ([3]; 1 μg/ml): 171.6 pg/mL
IL6 ([3]; 5 μg/ml): 447.6 pg/mL
IL6 ([3]; 20 μg/ml): 752.4 pg/mL
IL-6 secretion (in words) [3]: able to induce IL-6 secretion
IL-8 secretion, mean ([4]; 14 ng/ml): 0.19 pg/mL
IL-8 secretion, mean ([4]; 41 ng/ml): 0.20 pg/mL
IL-8 secretion, mean ([4]; 124 ng/ml): 0.24 pg/mL
IL-8 secretion, mean ([4]; 370 ng/ml): 0.25 pg/mL
IL-8 secretion, mean ([4]; 1111 ng/ml): 0.39 pg/mL
IL-8 secretion, mean ([4]; 3333 ng/ml): 0.88 pg/mL
IL-8 secretion, mean ([4]; 10000 ng/ml): 2.02 pg/mL
activation of IL-8 secretion via TLR2 (in words) [4]: able to activate IL-8 secretion via TLR2

CCCCCCCCCCCC(=O)O[C@H](CCCCCCCCCCC)CC(=O)NC1C(OCC2OC(OP(=O)(O)O)C(NC(=O)C[C@H](O)CCCCCCCCCCC)C(O)C2O)OC(CO)C(OP(=O)(O)O)C1O (stereo partly drawn) [compound 1b, 2-Deoxy-6-O-[2-deoxy-4-O-(dihydroxyphosphoryl)-2-[(R)-3-dodecanoyloxytetradecanoylamino]-β-D-glucopyranosyl]-2-[(R)-3-hydroxytetradecanoylamino]-α-D-glucopyranosyl dihydrogenophosphate]
TNF-α ([2]; 0.2 μg/ml): 37 pg/mL
TNF-α ([2]; 2 μg/ml): 117 pg/mL
TNF-α ([2]; 20 μg/ml): 1105 pg/mL
TNF-α induction (in words) [2]: induced high levels of TNF-α
IL6 ([3]; 1 μg/ml): 20.2 pg/mL
IL6 ([3]; 5 μg/ml): 57.1 pg/mL
IL6 ([3]; 20 μg/ml): 225.5 pg/mL
IL-6 secretion (in words) [3]: higher levels of IL-6; also recorded: able to induce IL-6 secretion

CCCCCCCCCCCC(=O)O[C@H](CCCCCCCCCCC)CC(=O)N[C@H]1[C@H](OC[C@H]2O[C@H](OCCOP(=O)(O)O)[C@H](NC(=O)C[C@H](O)CCCCCCCCCCC)[C@@H](O)[C@@H]2O)O[C@H](CO)[C@@H](OP(=O)(O)O)[C@@H]1O [compound 33, 2-(Phosphonooxy)ethyl-2-Deoxy-6-O-[2-deoxy-4-O-(dihydroxyphosphoryl)-2-[(R)-3-dodecanoyloxytetradecanoylamino]-β-D-glucopyranosyl]-2-[(R)-3-hydroxytetradecanoylamino]-α-D-glucopyranoside]
activation of THP-1 cells (in words) [1]: weaker
Optical density read at 625 nm, mean of duplicates ([1]; 14 ng/ml): 0.13 OD
Optical density read at 625 nm, mean of duplicates ([1]; 41 ng/ml): 0.12 OD
Optical density read at 625 nm, mean of duplicates ([1]; 124 ng/ml): 0.13 OD
Optical density read at 625 nm, mean of duplicates ([1]; 370 ng/ml): 0.16 OD
Optical density read at 625 nm, mean of duplicates ([1]; 1111 ng/ml): 0.19 OD
Optical density read at 625 nm, mean of duplicates ([1]; 3333 ng/ml): 0.25 OD
Optical density read at 625 nm, mean of duplicates ([1]; 10000 ng/ml): 0.35 OD
TNF-α ([2]; 0.2 μg/ml): 8.0 pg/mL
TNF-α ([2]; 2 μg/ml): 8.3 pg/mL
TNF-α ([2]; 20 μg/ml): 21 pg/mL
IL-8 secretion, mean ([4]; 14 ng/ml): 0.12 pg/mL
IL-8 secretion, mean ([4]; 41 ng/ml): 0.18 pg/mL
IL-8 secretion, mean ([4]; 124 ng/ml): 0.23 pg/mL
IL-8 secretion, mean ([4]; 370 ng/ml): 0.31 pg/mL
IL-8 secretion, mean ([4]; 1111 ng/ml): 0.68 pg/mL
IL-8 secretion, mean ([4]; 3333 ng/ml): 1.66 pg/mL
IL-8 secretion, mean ([4]; 10000 ng/ml): 3.64 pg/mL
activation of IL-8 secretion via TLR2 (in words) [4]: able to activate IL-8 secretion via TLR2
